In patent publication US11529344B2, “EZH2 inhibitor combination therapies” (Pfizer Inc., priority 2017, dated 2022):
“Also recorded” adds a separate entry of the source.

Test system: DMS114 SCLC xenograft
Text: • (i) Compound Formulation: Compound 1 was formulated as a wet-milled nanosuspension (24 hr milling in 2.5% w/v polyvinyl pyrrolidone (PVP), 0.5% w/v Macrogol 15 Hydroxystearate (Kolliphor HS15) aqueous, with <1 μm particle-size distribution (PSD; ˜650 nm median diameter (d50)) for oral gavage administration. • (ii) Cell Implant, Compound Dosing and Tissue Collection: Immune deficient female mice with a severe combined immunodeficiency (SCID) mutation in a non-obese diabetic background (NOD SCID; 6 to 8 week old; NOD.CB17-Prkdcscid/NCrCrl from Charles River Laboratories) received a subcutaneous (SC) implant of 7.5×10^6 DMS114 cells (in 1:1 matrigel (Trevigen, Cultrex BME Path Clear®, Lot #: 30625F14), total volume 200 μl) into the right flank. Tumor volume and body weight were measured twice a week. On Day 20 post implant, 64 mice were randomized, based on tumor size at a geometric mean (geomean) of about 160 mm^3, into 6 groups corresponding to dose (Table 1). Compounds were administered at 10 ml/kg by oral gavage (Compound 1; BID ( 7/17 hours apart)) or intraperitoneal injection (cisplatin), respectively. The cisplatin dosing schedule was once a week for 3 weeks (Q7Dx3) and started 7 days after the randomization and treatment initiation with Compound 1.
On Day 55, study groups 1, 2, 3 and 4 were terminated (Table 1). Tumor (snap frozen) samples were collected at 4 hours post last dose for pharmacodynamic (PD) analysis. […] Tumor samples from groups 5 and 6 were collected 3 hours post last dose depending on available tumor sizes. All procedures performed on these animals were in accordance with regulations and established guidelines and were reviewed and approved by Pfizer's Institutional Animal Care and Use Committee. • (iii) Data Interpretation: For each experiment, calculations were performed and graphs created in Microsoft Excel and GraphPad Prism version 7.02 respectively. The tumor volume was calculated as 0.5×length×width^2. Tumor growth inhibition (TGI) was determined by the formula: % TGI=[1−(Vtx−Vt0/Vcx−Vc0)]×100, where Vc, Vt are the geometric means of control and treated groups. X=day X on study and 0=initial day of dosing. ELISA Assay: • (i) Histone Extraction: Histone extraction was performed using the EpiQuick Histone Extraction Kit (Epigentek OP0006). Frozen tumor samples were cut and homogenized using cold mortar and pestle on dry-ice. The homogenized mixture was transferred to a 1.5 mL tube in 1× Pre-Lysis Buffer (200 mg/mL) containing phenylmethylsulfonyl fluoride (PMSF). Samples were gently mixed, incubated on ice for 15 minutes, and spun down at 3,000 rpm for 5 minutes at 4° C. The tissue pellet was resuspended in 3 volumes (approximately 200 μL per 100 mg of tissue) of lysis buffer from the Histone Extraction Kit, incubated on ice for 30 minutes, and spun down at 12,000 rpm for 5 minutes at 4° C. Balance-DTT buffer was prepared by adding DTT Solution to balance buffer at a 1:500 ratio. The supernatant (containing acid soluble proteins) was transferred to a new 1.5 mL tube and 0.3 volumes of Balance-dithiothreitol (DTT) buffer from the Histone Extraction Kit were immediately added to each sample. The tumor lysate was briefly sonicated for 4 cycles (30 seconds on and 30 seconds off) at high intensity using the Bioruptor Plus (Diagenode #601020001). Extracts were aliquoted and stored at −20° C. (short term) or −80° C. (long term). Protein concentration was quantified using the Coomassie Plus (Bradford) Assay Kit (Thermo #23236). • (ii) H3K27Me3 and Me2 ELISA Assay: Histone extracts were diluted to a final concentration of 400 ng (or 800 ng) in 100 μL of coating buffer (phosphate buffered saline (PBS) containing 0.05% bovine serum albumin (BSA)).

COc1cc(C)[nH]c(=O)c1CN1CCc2c(Cl)cc([C@H](OC)C3COC3)c(Cl)c2C1=O [Compound 1, 5,8-dichloro-2-[(4-methoxy-6-methyl-2-oxo-1,2-dihydro-pyridin-3-yl)methyl]-7-[(R)-methoxy(oxetan-3-yl)methyl]-3,4-dihydroisoquinolin-1(2H)-one]
TGI by Day 55 (Compound 1 100 mg/kg BID PO, cisplatin 4 mg/kg IP Q7Dx3, alone or combined): 50% | anti-tumor benefit vs vehicle control group (Compound 1 100 mg/kg BID and 300 mg/kg BID, Day 55): significant anti-tumor benefit | tolerability / body weight loss (Compound 1 PO BID, cisplatin 4 mg/kg IP Q7Dx3, combination with Compound 1 100 mg/kg BID): well tolerated with limited bodyweight loss; also recorded: minimal toxicity | complete tumor regressions (Compound 1 monotherapy arms, 30, 100 and 300 mg/kg BID): No complete tumor regressions | tumors regressed or progressed compared to the starting tumor burden (Day 55, Compound 1 100 mg/kg BID, cisplatin 4 mg/kg Q7Dx3): all tumors had progressed | survival benefit, Log-rank test (Mantel-Cox) (survival cut-off at 500 mm^3 tumor burden): did not reach the P<0.05 significance level | median survival (survival cut-off at 500 mm^3 tumor burden, Compound 1 100 mg/kg BID, cisplatin 4 mg/kg Q7Dx3): 39 days
